Test results published in ChEMBL document CHEMBL1139084, “N-Alkyl-N-alkyloxycarbonylaminomethyl (NANAOCAM) prodrugs of carboxylic acid containing drugs” (Bioorg Med Chem Lett, 2007).
Values after ≈ are worked out from the molar mass of the structure shown.

Tests used:
[1] = Stability in aqueous buffer assessed as hydrolysis half life; assay type: physicochemical
[2] = Dissociation constant, pKa of the compound; assay type: physicochemical
[3] = Solubility in isopropyl myristate; assay type: physicochemical
[4] = Partition coefficient, log K between isopropyl myristate and pH 4.0 buffer; assay type: ADME; details: isopropyl myristate/pH 4.0 buffer
[5] = system: Zone of skin; test: Drug level in mouse skin; assay type: ADME, tissue-based; details: in vitro
[6] = Permeability across hairless mouse skin from isopropyl myristate; assay type: ADME, tissue-based, Zone of skin; details: read-out: permeability (converted)

Structure (SMILES): CCn1cc(C(=O)OCN(C)C(=O)OC)c(=O)c2ccc(C)nc21
- half-life [1]: 40 min
- pKa [2]: 6

Structure (SMILES): COC(=O)N(COC(=O)[C@@H](C)c1ccc2cc(OC)ccc2c1)c1ccc(OC)cc1
- half-life [1]: 49.8 min
- pKa [2]: 4.2

Structure (SMILES): COC(=O)N(C)COC(=O)C(C)c1ccc(CC(C)C)cc1 (centres undefined)
- half-life [1]: 4.11 min
- pKa [2]: 4.41

Structure (SMILES): COC(=O)N(COC(=O)[C@@H](C)c1ccc2cc(OC)ccc2c1)c1ccccc1
- half-life [1]: 120 min
- pKa [2]: 4.2

Structure (SMILES): CCOC(=O)c1ccc(N(COC(=O)[C@@H](C)c2ccc3cc(OC)ccc3c2)C(=O)OC)cc1
- half-life [1]: 156 min
- pKa [2]: 4.2

Structure (SMILES): COC(=O)N(C)COC(=O)[C@@H](C)c1ccc2cc(OC)ccc2c1
- half-life [1]: 2 min
- pKa [2]: 4.2
- solubility [3]: 5.16 mM (≈ 1710 µg/mL)
- log K [4]: 1.67
- Drug uptake [5]: 4.21 µmol
- Papp [6]: 5.28 ×10⁻⁶ cm/s

Structure (SMILES): COC(=O)N(C)COC(=O)Cc1c(C)n(C(=O)c2ccc(Cl)cc2)c2ccc(OC)cc12
- half-life [1]: 3.65 min
- pKa [2]: 4.5

Structure (SMILES): COc1ccc2cc([C@H](C)C(=O)O)ccc2c1 [NAPROXEN]
- Drug uptake [5]: 2.71 µmol
